Assay results as given in the supplement of paper PMC8617591.

How the values were obtained:
[1] = test system: Mycobacterium tuberculosis Erdman (autoluminescent); assay: AUC25, normalised area under dose response up to IC25 (fraction (0-1)); higher = more potent at low dose
Procedure: (§1)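 DiaMOND equipotent two-drug combination dose responses against autoluminescent M. tuberculosis Erdman in 8 in vitro models. Read-out is OD600, or luminescence for the intracellular and dormancy models, normalised to untreated wells. Hill-fit Einf, AUC25 and GRinf are potency metrics; FIC50 and FIC90 are Loewe-additivity fractional inhibitory concentrations, given as log2 (negative = synergy). Replicates are averaged.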

[2] = test system: Mycobacterium tuberculosis Erdman (autoluminescent); assay: Einf, fitted maximum growth inhibition of combination (fraction); higher = stronger maximal inhibition
Procedure: as §1

[3] = test system: Mycobacterium tuberculosis Erdman (autoluminescent); assay: FIC90 (Loewe) at 90% inhibition (log2); higher = more antagonistic
Procedure: as §1

[4] = test system: Mycobacterium tuberculosis Erdman (autoluminescent); assay: GRinf, maximum normalised growth rate inhibition (unitless (-1 to 1)); higher = less effect (negative = killing)
Procedure: as §1

[5] = test system: Mycobacterium tuberculosis Erdman (autoluminescent); assay: FIC50 (Loewe) at 50% inhibition (log2); higher = more antagonistic
Procedure: as §1

COc1c(N2C[C@@H]3CCCN[C@@H]3C2)c(F)cc2c(=O)c(C(=O)O)cn(C3CC3)c12 [moxifloxacin] + O=[N+]([O-])c1cn2c(n1)OC[C@@H](OCc1ccc(OC(F)(F)F)cc1)C2 [pretomanid]
Settings	AUC25, [1]	Einf, [2]	FIC50, [5]	FIC90, [3]	GRinf, [4]
in vitro model: acidic pH 5.7, time point: constant (~7 days, model-specific)	0.139	0.846	0.225	–	-0.773
in vitro model: acidic pH 5.7, time point: terminal (~4-5 doublings, model-specific)	0.107	0.976	-0.052	0.879	-0.428
in vitro model: intracellular J774, time point: constant = terminal	–	0.993	–	-0.156	-0.437

Settings	AUC25, [1]	Einf, [2]	FIC50, [5]	FIC90, [3]	GRinf, [4]
in vitro model: butyrate, time point: constant (~7 days, model-specific)	0.0964	0.947	0.526	0.61	-0.0779
in vitro model: butyrate, time point: terminal (~4-5 doublings, model-specific)	0.0655	0.973	0.406	0.607	-0.07
in vitro model: cholesterol 0.05 mM, time point: constant (~7 days, model-specific)	0.119	0.751	0.221	–	-0.223
in vitro model: cholesterol 0.05 mM, time point: terminal (~4-5 doublings, model-specific)	0.105	0.938	0.248	0.691	-0.248
in vitro model: cholesterol-high 0.2 mM, time point: constant (~7 days, model-specific)	0.103	0.952	0.238	1.96	-0.404
in vitro model: cholesterol-high 0.2 mM, time point: terminal (~4-5 doublings, model-specific)	0.0655	1	0.457	0.364	-0.745
in vitro model: dormancy (butyrate + nitrate, low O2), time point: constant (~7 days, model-specific)	0.0724	0.898	0.568	0.524	0.165
in vitro model: dormancy (butyrate + nitrate, low O2), time point: terminal (~4-5 doublings, model-specific)	0.0602	0.96	0.607	0.936	-0.142
in vitro model: standard 7H9 glycerol, time point: constant = terminal	0.0929	0.978	-0.329	0.198	-0.166
in vitro model: valerate, time point: constant (~7 days, model-specific)	0.12	0.9	-0.0268	–	-0.302
in vitro model: valerate, time point: terminal (~4-5 doublings, model-specific)	0.102	0.968	-0.156	0.429	-0.0344

O=[N+]([O-])c1cn2c(n1)OC[C@@H](OCc1ccc(OC(F)(F)F)cc1)C2 [pretomanid] + CO[C@H]1/C=C/O[C@@]2(C)Oc3c(C)c(O)c4c(O)c(c(/C=N/N5CCN(C6CCCC6)CC5)c(O)c4c3C2=O)NC(=O)/C(C)=C\C=C\[C@H](C)[C@H](O)[C@@H](C)[C@@H](O)[C@@H](C)[C@H](OC(C)=O)[C@@H]1C [rifapentine]
Settings	AUC25, [1]	Einf, [2]	FIC50, [5]	FIC90, [3]	GRinf, [4]
in vitro model: acidic pH 5.7, time point: constant (~7 days, model-specific)	0.101	0.925	0.285	–	-0.447
in vitro model: acidic pH 5.7, time point: terminal (~4-5 doublings, model-specific)	0.0525	0.991	0.359	0.243	-0.276
in vitro model: intracellular J774, time point: constant = terminal	–	0.991	–	-0.454	-0.347

Settings	AUC25, [1]	Einf, [2]	FIC50, [5]	FIC90, [3]	GRinf, [4]
in vitro model: butyrate, time point: constant (~7 days, model-specific)	0.0925	0.929	0.307	0.357	-0.0285
in vitro model: butyrate, time point: terminal (~4-5 doublings, model-specific)	0.0679	0.963	0.223	0.114	-0.0133
in vitro model: cholesterol 0.05 mM, time point: constant (~7 days, model-specific)	0.114	0.732	0.253	–	-0.354
in vitro model: cholesterol 0.05 mM, time point: terminal (~4-5 doublings, model-specific)	0.0965	0.93	0.285	1.63	-0.257
in vitro model: cholesterol-high 0.2 mM, time point: constant (~7 days, model-specific)	0.0774	0.911	0.634	–	-0.247
in vitro model: cholesterol-high 0.2 mM, time point: terminal (~4-5 doublings, model-specific)	0.0546	0.979	0.806	0.721	-0.463
in vitro model: dormancy (butyrate + nitrate, low O2), time point: constant (~7 days, model-specific)	0.0571	0.904	0.527	0.277	0.192
in vitro model: dormancy (butyrate + nitrate, low O2), time point: terminal (~4-5 doublings, model-specific)	0.0438	0.983	0.383	0.448	-0.148
in vitro model: standard 7H9 glycerol, time point: constant = terminal	0.0697	0.928	-0.158	0.519	0.0428
in vitro model: valerate, time point: constant (~7 days, model-specific)	0.127	0.892	0.377	–	-0.0483
in vitro model: valerate, time point: terminal (~4-5 doublings, model-specific)	0.0738	0.954	0.21	0.484	-0.107

O=[N+]([O-])c1cn2c(n1)OC[C@@H](OCc1ccc(OC(F)(F)F)cc1)C2 [pretomanid] + CO[C@H]1/C=C/O[C@@]2(C)Oc3c(C)c(O)c4c(O)c(c(/C=N/N5CCN(C)CC5)c(O)c4c3C2=O)NC(=O)/C(C)=C\C=C\[C@H](C)[C@H](O)[C@@H](C)[C@@H](O)[C@@H](C)[C@H](OC(C)=O)[C@@H]1C [rifampicin]
Settings	AUC25, [1]	Einf, [2]	FIC50, [5]	FIC90, [3]	GRinf, [4]
in vitro model: acidic pH 5.7, time point: constant (~7 days, model-specific)	0.106	0.944	0.259	–	-0.224
in vitro model: acidic pH 5.7, time point: terminal (~4-5 doublings, model-specific)	0.0463	0.985	0.545	-0.025	-0.239
in vitro model: intracellular J774, time point: constant = terminal	–	0.966	–	-0.863	-0.281

Settings	AUC25, [1]	Einf, [2]	FIC50, [5]	FIC90, [3]	GRinf, [4]
in vitro model: butyrate, time point: constant (~7 days, model-specific)	0.0943	0.915	0.189	-0.398	0.00239
in vitro model: butyrate, time point: terminal (~4-5 doublings, model-specific)	0.0817	0.966	-0.0797	-0.223	-0.0223
in vitro model: cholesterol 0.05 mM, time point: constant (~7 days, model-specific)	0.108	0.691	0.468	–	-0.0815
in vitro model: cholesterol 0.05 mM, time point: terminal (~4-5 doublings, model-specific)	0.0829	0.905	0.242	-0.715	-0.0976
in vitro model: cholesterol-high 0.2 mM, time point: constant (~7 days, model-specific)	0.0743	0.902	0.509	0.733	-0.211
in vitro model: cholesterol-high 0.2 mM, time point: terminal (~4-5 doublings, model-specific)	0.0653	1	0.521	0.306	-0.595
in vitro model: dormancy (butyrate + nitrate, low O2), time point: constant (~7 days, model-specific)	0.0843	0.942	0.23	-0.00861	0.0579
in vitro model: dormancy (butyrate + nitrate, low O2), time point: terminal (~4-5 doublings, model-specific)	0.0526	0.986	0.0748	0.236	-0.16
in vitro model: standard 7H9 glycerol, time point: constant = terminal	0.0517	0.912	-0.316	-1.42	0.0474
in vitro model: valerate, time point: constant (~7 days, model-specific)	0.104	0.877	0.152	–	0.0588
in vitro model: valerate, time point: terminal (~4-5 doublings, model-specific)	0.0482	0.943	0.504	-0.0514	0.0666

O=[N+]([O-])c1cn2c(n1)OC[C@@H](OCc1ccc(OC(F)(F)F)cc1)C2 [pretomanid] + NC(=O)c1cnccn1 [pyrazinamide]
Settings	AUC25, [1]	Einf, [2]	FIC50, [5]	FIC90, [3]	GRinf, [4]
in vitro model: acidic pH 5.7, time point: constant (~7 days, model-specific)	0.088	0.831	-0.419	-0.689	-0.435
in vitro model: acidic pH 5.7, time point: terminal (~4-5 doublings, model-specific)	0.0893	0.968	-0.536	-1.56	-0.433
in vitro model: intracellular J774, time point: constant = terminal	–	1	–	-0.0198	-0.358

Settings	AUC25, [1]	Einf, [2]	FIC50, [5]	FIC90, [3]	GRinf, [4]
in vitro model: butyrate, time point: constant (~7 days, model-specific)	0.115	0.869	-0.24	1.15	0.144
in vitro model: butyrate, time point: terminal (~4-5 doublings, model-specific)	0.109	0.936	-0.0126	1.79	0.0694
in vitro model: cholesterol 0.05 mM, time point: constant (~7 days, model-specific)	0.137	0.752	–	–	-0.38
in vitro model: cholesterol 0.05 mM, time point: terminal (~4-5 doublings, model-specific)	0.109	0.922	0.0466	–	-0.194
in vitro model: cholesterol-high 0.2 mM, time point: constant (~7 days, model-specific)	0.0725	0.886	-0.0986	–	-0.169
in vitro model: cholesterol-high 0.2 mM, time point: terminal (~4-5 doublings, model-specific)	0.0665	0.998	0.341	-0.19	-0.445
in vitro model: dormancy (butyrate + nitrate, low O2), time point: constant (~7 days, model-specific)	0.0996	0.936	-0.574	0.149	0.076
in vitro model: dormancy (butyrate + nitrate, low O2), time point: terminal (~4-5 doublings, model-specific)	0.0823	0.995	-0.829	0.679	-0.921
in vitro model: standard 7H9 glycerol, time point: constant = terminal	0.067	0.915	-0.256	–	0.0921
in vitro model: valerate, time point: constant (~7 days, model-specific)	0.093	0.833	0.0923	–	0.163
in vitro model: valerate, time point: terminal (~4-5 doublings, model-specific)	0.065	0.923	-0.176	-0.316	0.118

NC(=O)c1cnccn1 [pyrazinamide] + CO[C@H]1/C=C/O[C@@]2(C)Oc3c(C)c(O)c4c(O)c(c(/C=N/N5CCN(C6CCCC6)CC5)c(O)c4c3C2=O)NC(=O)/C(C)=C\C=C\[C@H](C)[C@H](O)[C@@H](C)[C@@H](O)[C@@H](C)[C@H](OC(C)=O)[C@@H]1C [rifapentine]
Settings	AUC25, [1]	Einf, [2]	FIC50, [5]	FIC90, [3]	GRinf, [4]
in vitro model: acidic pH 5.7, time point: constant (~7 days, model-specific)	0.0839	0.93	-0.598	–	-0.369
in vitro model: acidic pH 5.7, time point: terminal (~4-5 doublings, model-specific)	0.0754	0.997	-0.129	-1.04	-0.31
in vitro model: intracellular J774, time point: constant = terminal	–	0.964	–	-0.235	-0.243

Settings	AUC25, [1]	Einf, [2]	FIC50, [5]	FIC90, [3]	GRinf, [4]
in vitro model: butyrate, time point: constant (~7 days, model-specific)	0.109	0.875	0.371	1.25	0.119
in vitro model: butyrate, time point: terminal (~4-5 doublings, model-specific)	0.0943	0.941	0.431	1	0.108
in vitro model: cholesterol 0.05 mM, time point: constant (~7 days, model-specific)	0.127	0.63	–	–	0.0214
in vitro model: cholesterol 0.05 mM, time point: terminal (~4-5 doublings, model-specific)	0.105	0.896	0.52	–	-0.284
in vitro model: cholesterol-high 0.2 mM, time point: constant (~7 days, model-specific)	0.0949	0.922	0.664	–	-0.246
in vitro model: cholesterol-high 0.2 mM, time point: terminal (~4-5 doublings, model-specific)	0.0793	1	1.19	0.905	-0.711
in vitro model: dormancy (butyrate + nitrate, low O2), time point: constant (~7 days, model-specific)	0.0917	0.902	-0.609	1.09	0.258
in vitro model: dormancy (butyrate + nitrate, low O2), time point: terminal (~4-5 doublings, model-specific)	0.0455	0.982	-0.14	-0.0574	-0.142
in vitro model: standard 7H9 glycerol, time point: constant = terminal	0.0487	0.866	-0.0174	–	0.219
in vitro model: valerate, time point: constant (~7 days, model-specific)	0.0445	0.684	0.675	–	0.299
in vitro model: valerate, time point: terminal (~4-5 doublings, model-specific)	0.0349	0.892	0.752	0.534	0.155
